US20250221988A1 (Cullgen (Shanghai), Inc., priority 2022, published 2025)
Read-outs that look alike come from different tables or passages of the source.

Legend:
MOLM-13 cells = assay: Cell viability assay (CellTiter-Glo) in MOLM-13 cells; format: cell-based
MV4;11 cells = assay: Cell viability assay (CellTiter-Glo) in MV4;11 cells; format: cell-based; settings: read-out: MV4
How it was run: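 After three days' exposure to 3-fold serial compound dilutions (8 or 12 points), viability of cells seeded at 5000/well is read by CellTiter-Glo. Runs were done alone or combined with gilteritinib at 10 nM (MV4;11) or 20 nM (MOLM-13); IC50 from nonlinear regression.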

[1] = Homo sapiens, MOLM-13, 72 h, read-out: MOLM-13 IC50 (nM)
[2] = read-out: MOLM-13 IC50 (nM) + 10 nM Gil, MOLM-13 cells, with gilteritinib, three days
[3] = Homo sapiens, MV4-11, 72 h, 11 IC50 (nM)
[4] = 11 IC50 (nM) + 10 nM Gil, MV4;11 cells, with 10 nM gilteritinib, three days
[5] = Homo sapiens, 72 h, MOLM-13 cells, compound alone, three days, read-out: MOLM-13 IC50
[6] = Homo sapiens, MV4-11, 72 h, MV4;11 cells, compound alone, three days, 11 IC50
[7] = MOLM-13 cells, with gilteritinib, three days, read-out: MOLM-13 IC50 (nM) + 10 nM Gil
[8] = MV4;11 cells, with 10 nM gilteritinib, three days, 11 IC50 (nM) + 10 nM Gil

Row | IC50 (MOLM-13 cells; [5]) | IC50 (MV4;11 cells; [6]) | IC50 (MOLM-13 cells; [7]) | IC50 (MV4;11 cells; [8]) | SMILES | IC50 (MOLM-13 cells; [1]) | IC50 (MOLM-13 cells; [2]) | IC50 (MV4;11 cells; [3]) | IC50 (MV4;11 cells; [4])
1 | – | – | – | – | O=C1CCC(N2C(=O)c3ccc(NC[C@H]4C[C@H](n5cc(NC6CCCCC6)c(C6CC6)n5)C4)cc3C2=O)C(=O)N1 (stereo partly drawn) [GS-667, 5-(((Trans-3-(4-(cyclohexylamino)-3-cyclopropyl-1H-pyrazol-1-yl)cyclobutyl)methyl)amino)-2-(2,6-dioxopiperidin-3-yl)isoindoline-1,3-dione] | 10 to 100 nM | 10 to 100 nM | 10 to 100 nM | < 10 nM
2 | > 1000 nM | > 1000 nM | – | – | Cc1nc(-c2cn([C@H]3C[C@@H]3CNc3ccc4c(c3)C(=O)N(C3CCC(=O)NC3=O)C4=O)nc2C2CC2)ccc1F (relative stereo) [GS-643, 5-(((Trans-2-(3-cyclopropyl-4-(5-fluoro-6-methylpyridin-2-yl)-1H-pyrazol-1-yl)cyclopropyl)methyl)amino)-2-(2,6-dioxopiperidin-3-yl)isoindoline-1,3-dione] | – | – | – | –
3 | 100 to 1000 nM | > 1000 nM | 100 to 1000 nM | 100 to 1000 nM | O=C1CCC(N2C(=O)c3ccc(NC[C@H]4C[C@H](n5cc(-c6ccc7c(n6)CCC7O)c(C6CC6)n5)C4)cc3C2=O)C(=O)N1 (stereo partly drawn) [GS-705, 5-(((Trans-3-(3-cyclopropyl-4-(5-hydroxy-6,7-dihydro-5H-cyclopenta[b]pyridin-2-yl)-1H-pyrazol-1-yl)cyclobutyl)methyl)amino)-2-(2,6-dioxopiperidin-3-yl)isoindoline-1,3-dione] | – | – | – | –
4 | – | – | – | – | O=C1CCC(N2C(=O)c3ccc(NC[C@H]4C[C@H](n5cc(-n6ccc7ccccc76)c(C6CC6)n5)C4)cc3C2=O)C(=O)N1 (stereo partly drawn) [GS-738, 5-(((Trans-3-(3-cyclopropyl-4-(1H-indol-1-yl)-1H-pyrazol-1-yl)cyclobutyl)methyl)amino)-2-(2,6-dioxopiperidin-3-yl)isoindoline-1,3-dione] | 100 to 1000 nM | 10 to 100 nM | 10 to 100 nM | 10 to 100 nM
5 | 10 to 100 nM | < 10 nM | < 10 nM | < 10 nM | Cn1ncc2ccnc(-c3cn([C@H]4C[C@H](CNc5ccc6c(c5)C(=O)N(C5CCC(=O)NC5=O)C6=O)C4)nc3C3CC3)c21 (stereo partly drawn) [GS-649, 5-(((trans-3-(3-Cyclopropyl-4-(1-methyl-1H-pyrazolo[3,4-c]pyridin-7-yl)-1H-pyrazol-1-yl)cyclobutyl)methyl)amino)-2-(2,6-dioxopiperidin-3-yl)isoindoline-1,3-dione] | – | – | – | –
6 | > 1000 nM | > 1000 nM | – | – | Nc1ccnc2c1c(C1CC1)nn2[C@H]1C[C@H](CNc2ccc3c(c2)C(=O)N(C2CCC(=O)NC2=O)C3=O)C1 (stereo partly drawn) [GS-762, 5-(((Trans-3-(4-amino-3-cyclopropyl-1H-pyrazolo[3,4-b]pyridin-1-yl)cyclobutyl)methyl)amino)-2-(2,6-dioxopiperidin-3-yl)isoindoline-1,3-dione] | – | – | – | –
7 | < 10 nM | < 10 nM | < 10 nM | < 10 nM | Cn1ncc2cnc(-c3cn([C@H]4C[C@H](CCc5ccc6c(c5)CN([C@@H]5CCC(=O)NC5=O)C6=O)C4)nc3C3CC3)cc21 [GS-766, 3-(5-(2-(Trans-3-(3-cyclopropyl-4-(1-methyl-1H-pyrazolo[4,3-c]pyridin-6-yl)-1H-pyrazol-1-yl)cyclobutyl)ethyl)-1-oxoisoindolin-2-yl)piperidine-2,6-dione] | – | – | – | –
8 | > 1000 nM | > 1000 nM | – | – | Cc1nc(-c2cn(C[C@H]3C[C@H](Nc4ccc5c(c4)C(=O)N(C4CCC(=O)NC4=O)C5=O)C3)nc2C2CC2)ccc1F (stereo partly drawn) [GS-711, 5-((Trans-3-((3-cyclopropyl-4-(5-fluoro-6-methylpyridin-2-yl)-1H-pyrazol-1-yl)methyl)cyclobutyl)amino)-2-(2,6-dioxopiperidin-3-yl)isoindoline-1,3-dione] | – | – | – | –
9 | 100 to 1000 nM | 10 to 100 nM | 10 to 100 nM | 10 to 100 nM | Cc1nn([C@H]2C[C@H](CNc3ccc4c(c3)C(=O)N(C3CCC(=O)NC3=O)C4=O)C2)c2ccccc12 (stereo partly drawn) [GS-689, 2-(2,6-Dioxopiperidin-3-yl)-5-(((trans-3-(3-methyl-1H-indazol-1-yl)cyclobutyl)methyl)amino)isoindoline-1,3-dione] | – | – | – | –
10 | > 1000 nM | > 1000 nM | 100 to 1000 nM | 100 to 1000 nM | O=C1CCC(N2C(=O)c3ccc(NC[C@H]4C[C@H](n5nc(C6CC6)c6ccc(N7CCNCC7)cc65)C4)cc3C2=O)C(=O)N1 (stereo partly drawn) [GS-742, 5-(((Trans-3-(3-cyclopropyl-6-(piperazin-1-yl)-1H-indazol-1-yl)cyclobutyl)methyl)amino)-2-(2,6-dioxopiperidin-3-yl)isoindoline-1,3-dione] | – | – | – | –
11 | 100 to 1000 nM | 10 to 100 nM | 10 to 100 nM | 10 to 100 nM | O=C1CCC(N2C(=O)c3ccc(NC[C@H]4C[C@H](n5cc(C6CCC(O)CC6)c(C6CC6)n5)C4)cc3C2=O)C(=O)N1 (stereo partly drawn) [GS-701, 5-(((Trans-3-(3-cyclopropyl-4-(4-hydroxycyclohexyl)-1H-pyrazol-1-yl)cyclobutyl)methyl)amino)-2-(2,6-dioxopiperidin-3-yl)isoindoline-1,3-dione] | – | – | – | –
12 | > 1000 nM | > 1000 nM | – | – | Cn1cncc1-c1cn([C@H]2C[C@H](CNc3ccc4c(c3)C(=O)N(C3CCC(=O)NC3=O)C4=O)C2)nc1C1CC1 (stereo partly drawn) [GS-691, 5-(((Trans-3-(3-cyclopropyl-4-(1-methyl-1H-imidazol-5-yl)-1H-pyrazol-1-yl)cyclobutyl)methyl)amino)-2-(2,6-dioxopiperidin-3-yl)isoindoline-1,3-dione] | – | – | – | –
13 | 100 to 1000 nM | 10 to 100 nM | 10 to 100 nM | 10 to 100 nM | CN(C)c1ccccc1-c1cn([C@H]2C[C@H](CNc3ccc4c(c3)C(=O)N(C3CCC(=O)NC3=O)C4=O)C2)nc1C1CC1 (stereo partly drawn) [GS-650, 5-(((trans-3-(3-Cyclopropyl-4-(2-(dimethylamino)phenyl)-1H-pyrazol-1-yl)cyclobutyl)methyl)amino)-2-(2,6-dioxopiperidin-3-yl)isoindoline-1,3-dione] | – | – | – | –
14 | < 10 nM | < 10 nM | < 10 nM | < 10 nM | CC(C)n1cc2ccnc(-c3cn([C@H]4C[C@H](CNc5ccc6c(c5)C(=O)N(C5CCC(=O)NC5=O)C6=O)C4)nc3C3CC3)c2n1 (stereo partly drawn) [GS-660, 5-(((Trans-3-(3-cyclopropyl-4-(2-isopropyl-2H-pyrazolo[3,4-c]pyridin-7-yl)-1H-pyrazol-1-yl)cyclobutyl)methyl)amino)-2-(2,6-dioxopiperidin-3-yl)isoindoline-1,3-dione] | – | – | – | –
15 | – | – | – | – | CC(C)n1ccc2ccc(-c3cn([C@H]4C[C@H](CNc5ccc6c(c5)C(=O)N(C5CCC(=O)NC5=O)C6=O)C4)nc3C3CC3)nc21 (stereo partly drawn) [GS-737, 5-(((Trans-3-(3-cyclopropyl-4-(1-isopropyl-1H-pyrrolo[2,3-b]pyridin-6-yl)-1H-pyrazol-1-yl)cyclobutyl)methyl)amino)-2-(2,6-dioxopiperidin-3-yl)isoindoline-1,3-dione] | 100 to 1000 nM | 10 to 100 nM | 10 to 100 nM | 10 to 100 nM
16 | 100 to 1000 nM | 10 to 100 nM | 10 to 100 nM | < 10 nM | COc1cnc2c(c1)c(C1CC1)nn2[C@H]1C[C@H](CNc2ccc3c(c2)C(=O)N(C2CCC(=O)NC2=O)C3=O)C1 (stereo partly drawn) [GS-682, 5-(((Trans-3-(3-cyclopropyl-5-methoxy-1H-pyrazolo[3,4-b]pyridin-1-yl)cyclobutyl)methyl)amino)-2-(2,6-dioxopiperidin-3-yl)isoindoline-1,3-dione] | – | – | – | –
17 | < 10 nM | < 10 nM | < 10 nM | < 10 nM | O=C1CCC(N2C(=O)c3ccc(NC[C@H]4C[C@H](n5cc(-c6cnc7ccc(N8CCC(O)C8)cc7n6)c(C6CC6)n5)C4)cc3C2=O)C(=O)N1 (stereo partly drawn) [GS-659, 5-(((Trans-3-(3-cyclopropyl-4-(7-(3-hydroxypyrrolidin-1-yl)quinoxalin-2-yl)-1H-pyrazol-1-yl)cyclobutyl)methyl)amino)-2-(2,6-dioxopiperidin-3-yl)isoindoline-1,3-dione] | – | – | – | –
18 | – | – | – | – | O=C1CCC(N2C(=O)c3ccc(NC[C@H]4C[C@H](n5cc6ccccc6n5)C4)cc3C2=O)C(=O)N1 (stereo partly drawn) [GS-727, 5-(((Trans-3-(2H-indazol-2-yl)cyclobutyl)methyl)amino)-2-(2,6-dioxopiperidin-3-yl)isoindoline-1,3-dione] | > 1000 nM | 100 to 1000 nM | > 1000 nM | 100 to 1000 nM
19 | > 1000 nM | > 1000 nM | 10 to 100 nM | 100 to 1000 nM | COc1ccnc2c1c(C1CC1)nn2[C@H]1C[C@H](CNc2ccc3c(c2)C(=O)N(C2CCC(=O)NC2=O)C3=O)C1 (stereo partly drawn) [GS-681, 5-(((Trans-3-(3-cyclopropyl-4-methoxy-1H-pyrazolo[3,4-b]pyridin-1-yl)cyclobutyl)methyl)amino)-2-(2,6-dioxopiperidin-3-yl)isoindoline-1,3-dione] | – | – | – | –
20 | 10 to 100 nM | < 10 nM | < 10 nM | < 10 nM | Cn1cc2c(-c3cn([C@H]4C[C@H](CNc5ccc6c(c5)C(=O)N(C5CCC(=O)NC5=O)C6=O)C4)nc3C3CC3)ncc(F)c2n1 (stereo partly drawn) [GS-790, 5-(((Trans-3-(3-cyclopropyl-4-(7-fluoro-2-methyl-2H-pyrazolo[4,3-c]pyridin-4-yl)-1H-pyrazol-1-yl)cyclobutyl)methyl)amino)-2-(2,6-dioxopiperidin-3-yl)isoindoline-1,3-dione] | – | – | – | –
